Legend:
tau aggregates (Tau-412) = target: T1, tau aggregates (Tau-412) (Homo sapiens, UniProt P10636); experiment: In vitro binding assay with aggregated tau (fluorescence); settings: for Kd: aggregated tau 10 μg/sample, 1 h at RT, triplicate; for Selectivity Tau: Aβ1-40: ratio of Kd Aβ1-40 to Kd tau
T1 construct: purchased Stratech
Procedure: Tau protein (Tau-412 with 2 nucleotide-binding motifs and 4 repeat binding regions, 42.9 kDa, 1 mg/ml, Stratech) was incubated in the presence of heparin (0.1 mg/ml) for 72 h at 37° C. with continuous shaking to generate tau aggregates.
(§1) The two test compounds 18 (see Example 6) and 20 (see Example 5), were dissolved and serially diluted in DMSO. Samples with aggregated tau and Aβ1-40 (10 μg/sample) were incubated with a serial dilution of each test compound (concentration range 1 nM-100 μM) in 96-well plates for 1 h at RT. Following incubation, samples were transferred to spin column plates (Thermo Fisher) and then centrifugated for 2 min at 1,500×g to remove free compound from the samples. Finally, the samples were transferred to black 96-well plates, and the fluorescence intensity measured at […] using a Tecan plate reader. All experiments were performed in triplicate. Kd values for each compound was calculated by fitting the data to a non-linear binding curve using Prism (GraphPad).

Aβ1-40 aggregates = target: T2, Aβ1-40 aggregates (Homo sapiens, UniProt P05067); experiment: In vitro binding assay with aggregated Aβ1-40 (fluorescence); settings: aggregated Aβ1-40 10 μg/sample, 1 h at RT, triplicate
T2 construct: Aβ1-40 protein (4.3 kDa, 1 mg/ml, Invitrogen); purchased Invitrogen
Procedure: as §1, with “Aβ1-40 protein (4.3 kDa, 1 mg/ml, Invitrogen) was incubated at room temperature (RT) for 72 h with continuous shaking to generate Aβ1-40 aggregates. The two” for “The two”

insoluble tau aggregates = settings: J Med Chem, 2009, 52, 3539; cited from earlier work

T1 sequence (P10636 1-412 isoform P10636-7): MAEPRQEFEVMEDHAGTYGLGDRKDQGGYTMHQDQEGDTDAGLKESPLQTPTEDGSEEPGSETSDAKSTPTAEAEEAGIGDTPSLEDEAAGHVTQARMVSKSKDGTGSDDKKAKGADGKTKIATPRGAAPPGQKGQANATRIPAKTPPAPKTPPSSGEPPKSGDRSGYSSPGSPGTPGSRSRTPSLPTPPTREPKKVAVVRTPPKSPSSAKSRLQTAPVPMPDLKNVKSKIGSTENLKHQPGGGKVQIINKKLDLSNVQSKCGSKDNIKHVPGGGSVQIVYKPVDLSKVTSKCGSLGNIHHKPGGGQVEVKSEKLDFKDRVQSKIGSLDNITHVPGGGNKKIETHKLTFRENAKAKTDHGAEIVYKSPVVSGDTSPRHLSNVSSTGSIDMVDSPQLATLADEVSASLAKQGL
T2 sequence (P05067 672-711 limits assumed): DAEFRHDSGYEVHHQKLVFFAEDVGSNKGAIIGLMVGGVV

SMILES	Selectivity for aggregated tau compared to Aβ1-40 aggregates (in words) (tau aggregates (Tau-412))	Kd (tau aggregates (Tau-412))	Selectivity Tau: Aβ1-40 (tau aggregates (Tau-412))	Kd (Aβ1-40 aggregates)	Tau aggregation inhibition (in words) (insoluble tau aggregates)
COc1ccc2c(c1)N(CCF)/C(=C/C(C)=C/c1sc3ccc(OC)cc3[n+]1CCF)S2 [Compound 18, 3-(2-Fluoroethyl)-2-((1E,3Z)-3-(3-(2-fluoroethyl)-5-methoxybenzo[d]thiazol-2(3H)-ylidene)-2-methylprop-1-en-1-yl)-5-methoxybenzo[d]thiazol-3-ium]	highly selective	0.00088 ± 0.0009 µM	33,863	29.8 ± 21.3 µM	
COc1ccc2c(c1)N(CCO)/C(=C/C(C)=C/c1sc3ccc(OC)cc3[n+]1CCF)S2 [Compound 20, 3-(2-Fluoroethyl)-2-((1E,3Z)-3-(3-(2-hydroxyethyl)-5-methoxybenzo[d]thiazol-2(3H)-ylidene)-2-methylprop-1-en-1-yl)-5-methoxybenzo[d]thiazol-3-ium]	highly selective	0.00075 ± 0.00059 µM	20,800	15.6 ± 8.1 µM	
CCC(/C=C1\Sc2ccc(OC)cc2N1CCO)=C\c1sc2ccc(OC)cc2[n+]1CCO [Compound N744]					potent tau aggregation inhibitors
